Laboratory results published in patent publication US20230416248A1, “COMPOUNDS AND USES THEREOF” (Foghorn Therapeutics Inc., priority 2020, published 2023).
Like-named read-outs stand apart in the source and are kept apart here.

Assays:
BRM = target: T1, BRM (Homo sapiens, UniProt P51531); experiment: ATPase catalytic activity of BRM, ADP-Glo in vitro biochemical assay; conditions: for IC50: 30 nM BRM, 400 μM ATP; for Ratio* (BRG1 IC50 (μM) divided by BRM IC50 (μM)): selectivity ratio BRG1 IC50 / BRM IC50
T1 construct: made in house; host or cells: High Five insect cells
Outline: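 Recombinant BRM (30 nM) hydrolysed 400 μM ATP with 20 nM salmon sperm DNA in pH 8 Tris buffer containing 20 mM MgCl2, 50 mM NaCl, 0.1% Tween-20 and 1 mM DTT, 1 h at room temperature. ADP formed was quantified by ADP-Glo luminescence.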

BRG-1 = target: T2, BRG-1 (Homo sapiens, UniProt P51532); experiment: ATPase catalytic activity of BRG-1, ADP-Glo in vitro biochemical assay; conditions: 30 nM BRG-1, 400 μM ATP, read-out: BRG1 IC50
T2 construct: made in house; host or cells: High Five insect cells
Outline: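 Signal reflects ADP produced by the enzyme, quantified as luminescence after unused ATP is cleared and ADP is reconverted to ATP for the luciferase reaction; both steps run at room temperature, 40 and 60 min respectively.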

[1] = ATPase catalytic activity, ADP-Glo

T1 sequence (P51531 whole entry): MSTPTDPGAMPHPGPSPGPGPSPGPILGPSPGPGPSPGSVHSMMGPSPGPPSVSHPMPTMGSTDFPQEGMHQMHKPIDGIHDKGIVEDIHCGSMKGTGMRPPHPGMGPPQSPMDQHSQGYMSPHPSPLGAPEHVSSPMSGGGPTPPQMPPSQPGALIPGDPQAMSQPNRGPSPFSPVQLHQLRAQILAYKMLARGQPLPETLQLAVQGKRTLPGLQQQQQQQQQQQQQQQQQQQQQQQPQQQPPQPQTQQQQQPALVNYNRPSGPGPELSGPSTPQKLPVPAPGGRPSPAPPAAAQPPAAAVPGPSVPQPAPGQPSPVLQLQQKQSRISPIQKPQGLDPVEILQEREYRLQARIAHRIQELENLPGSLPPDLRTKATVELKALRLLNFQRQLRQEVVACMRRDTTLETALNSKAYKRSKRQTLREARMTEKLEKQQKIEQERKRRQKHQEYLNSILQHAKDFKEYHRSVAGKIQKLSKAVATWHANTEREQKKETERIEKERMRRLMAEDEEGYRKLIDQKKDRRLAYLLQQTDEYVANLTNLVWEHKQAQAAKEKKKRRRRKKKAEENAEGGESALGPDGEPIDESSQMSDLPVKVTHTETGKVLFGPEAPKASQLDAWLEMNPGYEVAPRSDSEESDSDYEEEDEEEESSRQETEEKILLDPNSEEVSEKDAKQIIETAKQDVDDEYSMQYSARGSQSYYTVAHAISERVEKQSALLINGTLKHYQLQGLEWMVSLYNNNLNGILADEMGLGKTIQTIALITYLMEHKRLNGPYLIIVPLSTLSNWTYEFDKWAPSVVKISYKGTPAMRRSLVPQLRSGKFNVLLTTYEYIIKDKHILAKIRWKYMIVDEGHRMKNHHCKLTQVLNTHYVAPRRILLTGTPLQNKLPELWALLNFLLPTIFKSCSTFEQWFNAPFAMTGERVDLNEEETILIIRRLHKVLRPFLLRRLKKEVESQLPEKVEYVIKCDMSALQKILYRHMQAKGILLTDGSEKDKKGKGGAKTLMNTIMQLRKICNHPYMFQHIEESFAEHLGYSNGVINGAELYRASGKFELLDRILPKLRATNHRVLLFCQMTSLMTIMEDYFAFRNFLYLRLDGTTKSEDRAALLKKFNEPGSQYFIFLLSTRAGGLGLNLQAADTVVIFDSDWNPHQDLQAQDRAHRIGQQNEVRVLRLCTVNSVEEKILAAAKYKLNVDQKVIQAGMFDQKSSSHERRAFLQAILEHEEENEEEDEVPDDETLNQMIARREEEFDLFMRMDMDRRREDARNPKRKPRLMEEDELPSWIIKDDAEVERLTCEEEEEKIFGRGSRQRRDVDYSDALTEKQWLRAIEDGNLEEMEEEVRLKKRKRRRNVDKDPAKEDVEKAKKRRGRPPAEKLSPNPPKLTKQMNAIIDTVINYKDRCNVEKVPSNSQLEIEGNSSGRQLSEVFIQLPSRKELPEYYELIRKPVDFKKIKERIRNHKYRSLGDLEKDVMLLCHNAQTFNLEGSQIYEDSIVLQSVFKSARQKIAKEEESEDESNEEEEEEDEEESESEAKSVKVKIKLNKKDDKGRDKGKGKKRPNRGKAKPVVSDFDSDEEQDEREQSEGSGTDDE
T2 sequence (P51532 whole entry): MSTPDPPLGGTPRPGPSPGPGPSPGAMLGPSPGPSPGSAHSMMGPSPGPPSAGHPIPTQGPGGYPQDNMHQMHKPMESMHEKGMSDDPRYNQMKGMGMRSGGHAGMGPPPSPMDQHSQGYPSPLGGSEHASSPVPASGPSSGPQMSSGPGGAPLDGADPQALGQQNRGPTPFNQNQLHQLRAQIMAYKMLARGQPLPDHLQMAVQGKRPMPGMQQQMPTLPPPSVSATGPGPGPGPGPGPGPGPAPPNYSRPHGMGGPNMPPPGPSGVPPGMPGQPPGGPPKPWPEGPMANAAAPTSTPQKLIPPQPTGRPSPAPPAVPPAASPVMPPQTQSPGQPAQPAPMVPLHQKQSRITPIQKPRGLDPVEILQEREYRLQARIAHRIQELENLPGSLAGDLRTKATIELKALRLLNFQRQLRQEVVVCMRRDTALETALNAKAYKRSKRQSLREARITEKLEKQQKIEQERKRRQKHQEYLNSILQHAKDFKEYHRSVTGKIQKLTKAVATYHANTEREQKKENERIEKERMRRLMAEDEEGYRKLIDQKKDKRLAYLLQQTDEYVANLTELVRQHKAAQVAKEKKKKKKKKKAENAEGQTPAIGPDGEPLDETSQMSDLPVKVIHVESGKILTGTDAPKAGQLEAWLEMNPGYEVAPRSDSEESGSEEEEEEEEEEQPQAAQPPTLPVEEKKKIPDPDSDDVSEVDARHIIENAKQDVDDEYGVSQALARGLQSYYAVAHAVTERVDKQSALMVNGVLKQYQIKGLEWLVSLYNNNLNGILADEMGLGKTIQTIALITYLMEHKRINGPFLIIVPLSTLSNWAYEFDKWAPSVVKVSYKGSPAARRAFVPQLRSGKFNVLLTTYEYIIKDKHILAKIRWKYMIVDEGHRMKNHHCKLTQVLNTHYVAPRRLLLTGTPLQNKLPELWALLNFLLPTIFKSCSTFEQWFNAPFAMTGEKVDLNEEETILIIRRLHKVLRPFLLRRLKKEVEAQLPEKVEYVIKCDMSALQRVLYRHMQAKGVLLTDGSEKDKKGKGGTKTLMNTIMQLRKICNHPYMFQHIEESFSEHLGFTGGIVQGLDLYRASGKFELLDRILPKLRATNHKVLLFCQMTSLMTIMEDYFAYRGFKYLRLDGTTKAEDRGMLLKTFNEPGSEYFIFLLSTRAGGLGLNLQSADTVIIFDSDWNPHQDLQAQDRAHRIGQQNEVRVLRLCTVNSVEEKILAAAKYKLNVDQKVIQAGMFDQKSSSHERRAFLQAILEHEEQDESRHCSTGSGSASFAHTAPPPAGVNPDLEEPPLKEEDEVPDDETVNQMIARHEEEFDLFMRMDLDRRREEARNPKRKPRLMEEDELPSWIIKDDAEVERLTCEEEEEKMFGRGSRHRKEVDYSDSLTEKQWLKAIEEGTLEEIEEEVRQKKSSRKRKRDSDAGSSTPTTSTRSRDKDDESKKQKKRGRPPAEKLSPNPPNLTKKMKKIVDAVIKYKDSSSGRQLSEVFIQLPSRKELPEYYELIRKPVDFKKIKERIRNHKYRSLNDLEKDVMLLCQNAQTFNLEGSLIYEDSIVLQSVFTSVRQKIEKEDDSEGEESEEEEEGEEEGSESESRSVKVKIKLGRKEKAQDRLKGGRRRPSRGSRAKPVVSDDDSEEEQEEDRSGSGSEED

IC50 (BRM; [1]) | Ratio* (BRM; ratio of BRG1 IC50 to BRM IC50) | IC50 (BRG-1; [1]) | IC50 (BRM; ADP-Glo ATPase assay) | Ratio* (BRG1 IC50 (μM) divided by BRM IC50 (μM)) (BRM) | IC50 (BRG-1; ADP-Glo ATPase assay) | Ratio* (BRM; ratio BRG1 IC50 / BRM IC50) | SMILES
7.7 nM | 8.60 | 65.9 nM | – | – | – | – | Cc1cnc2c(c1)OCCN2c1ccc2cnc(CNC(=O)c3ccc4c(c3)S(=O)(=O)C(C)COC4)cc2n1 (stereo not drawn) [Compound 545]
7.4 nM | 19.62 | 145 nM | – | – | – | – | CN(CCOC1CC1)c1cccc(-c2ccc3cnc(CNC(=O)c4ccc5c(c4)S(=O)(=O)CCOC5)cc3n2)n1 [Compound 361]
– | – | – | 5.1 nM | 3.87 | 19.8 nM | – | C[C@@H]1C=C(c2cccc(-c3ccc4cnc(CNC(=O)c5ccc6c(c5)S(=O)(=O)CCOC6)cc4n3)n2)C[C@H](C)O1 [Compound 45]
– | – | – | 5 nM | – | 46.9 nM | 9.39 | CO[C@@H](C)COc1ccc2c(c1)N(c1ccc3cnc(CNC(=O)c4ccc5c(c4)S(=O)(=O)CCOC5)cc3n1)CCC2 [Compound 706]
– | – | – | 17.6 nM | 9.92 | 174 nM | – | CC1(c2cccc(-c3ccc4cnc(CNC(=O)c5ccc6c(c5)S(=O)(=O)CCOC6)cc4n3)n2)CC1 [Compound 210]
167 nM | 5.29 | 884 nM | – | – | – | – | C[C@@H](C1COC1)N(C)c1cccc(-c2ccc3cnc(CNC(=O)c4ccc5c(c4)S(=O)(=O)CCOC5)cc3n2)n1 [Compound 471]
– | – | – | 30.8 nM | 21.02 | 648 nM | – | COCCN1CCOc2c(-c3ccc4cnc(CNC(=O)c5ccc(C(F)F)c(S(C)(=O)=O)c5)cc4n3)cccc21 [Compound 89]
– | – | – | 109 nM | 6.33 | 689 nM | – | O=C(NCc1cc2nc(-c3cccc(C4(F)CC(F)(F)C4)n3)ccc2cn1)c1ccc2c(c1)S(=O)(=O)CCOC2 [Compound 170]
98.3 nM | 21.63 | 2130 nM | – | – | – | – | C[C@@H]1CCS(=O)(=O)c2cc(C(=O)NCc3cc4nc(-c5cccc(N6C[C@@H](C)O[C@@H](C)C6)n5)ccc4cn3)ccc2O1 [Compound 416]
– | – | – | 85.8 nM | – | 1330 nM | 15.49 | O=C(NCc1cc2nc(N3CCCc4ncc(C5CC5)nc43)ccc2cn1)c1ccc2c(c1)S(=O)(=O)CCOC2 [Compound 785]
24.9 nM | 7.67 | 191 nM | – | – | – | – | C[C@H]1CCc2ccc(-c3ccc4cnc(CNC(=O)c5ccc6c(c5)S(=O)(=O)CCOC6)cc4n3)nc2N1C [Compound 468]
13.3 nM | 10.89 | 144 nM | – | – | – | – | COc1nc(-c2ccc3cnc(CNC(=O)c4ccc5c(c4)S(=O)(=O)[C@@H](C)COC5)cc3n2)ccc1C(F)F [Compound 519]
– | – | – | 40.2 nM | – | 667 nM | 16.58 | O=C(NCc1cc2nc(N3CCC4(CCC4)c4cccnc43)ccc2cn1)c1ccc2c(c1)S(=O)(=O)CCOC2 [Compound 723]
32.3 nM | 14.01 | 453 nM | – | – | – | – | Cc1cnc2c(n1)CCCN2c1ccc2cnc(CNC(=O)c3ccc4c(c3)S(=O)(=O)CCOC4)cc2n1 [Compound 440]
173 nM | 3.88 | 671 nM | – | – | – | – | CC1CCc2ccc(-c3ccc4cnc(CNC(=O)c5ccc6c(c5)S(=O)(=O)CCOC6)cc4n3)nc2O1 (stereo not drawn) [Compound 529]
– | – | – | 23.9 nM | 11.93 | 285 nM | – | CN(CC1COC1)c1cccc(-c2ccc3cnc(CNC(=O)c4ccc5c(c4)S(=O)(=O)CCOC5)cc3n2)n1 [Compound 71]
6.4 nM | 26.34 | 170 nM | – | – | – | – | O=C(NCc1cc2nc(N3CCCc4ccc(OC5CC5)cc43)ccc2cn1)c1ccc2c(c1)S(=O)(=O)CCOC2 [Compound 644]
– | – | – | 74 nM | – | 981 nM | 13.26 | O=C(NCc1cc2nc(N3CCOc4cc(C(F)F)ncc43)ccc2cn1)c1ccc2c(c1)S(=O)(=O)CCOC2 [Compound 777]
14 nM | 29.57 | 415 nM | – | – | – | – | Cc1cc(C(=O)NCc2cc3nc(-c4cccc(N5C[C@@H](C)O[C@@H](C)C5)n4)ccc3cn2)cc2c1COCCS2(=O)=O [Compound 354]
443 nM | 7.21 | 3190 nM | – | – | – | – | O=C(NCc1cc2nc(N3CCCC4CCCC43)ccc2cn1)c1ccc2c(c1)S(=O)(=O)CCOC2 (stereo not drawn) [Compound 652]
– | – | – | 19.1 nM | – | 486 nM | 25.47 | [2H]C1([2H])OC([2H])([2H])C([2H])([2H])S(=O)(=O)c2cc(C(=O)NCc3cc4nc(N5CCOc6ccc(C(F)F)nc65)ccc4cn3)ccc21 [Compound 807]

IC50 (BRM; [1]) | Ratio* (BRM; ratio of BRG1 IC50 to BRM IC50) | IC50 (BRG-1; [1]) | IC50 (BRM; ADP-Glo ATPase assay) | Ratio* (BRG1 IC50 (μM) divided by BRM IC50 (μM)) (BRM) | IC50 (BRG-1; ADP-Glo ATPase assay) | Ratio* (BRM; ratio BRG1 IC50 / BRM IC50) | SMILES
– | – | – | 7.7 nM | 13.36 | 103 nM | – | CO[C@@H]1CCCN(c2cccc(-c3ccc4cnc(CNC(=O)c5ccc6c(c5)S(=O)(=O)CCOC6)cc4n3)n2)C1 [Compound 92]
– | – | – | 17.1 nM | – | 156 nM | 9.15 | COCc1cc2c(nc1C(F)F)N(c1ccc3cnc(CNC(=O)c4ccc5c(c4)S(=O)(=O)CCOC5)cc3n1)CCC2 [Compound 835]
33 nM | 9.53 | 315 nM | – | – | – | – | Cc1ccnc2c1N(C)CCN2c1ccc2cnc(CNC(=O)c3ccc4c(c3)S(=O)(=O)CCOC4)cc2n1 [Compound 681]
476 nM | 4.77 | 2270 nM | – | – | – | – | Cc1ccc2c(n1)CN(c1ccc3cnc(CNC(=O)c4ccc5c(c4)S(=O)(=O)CCOC5)cc3n1)CC2 [Compound 408]
45.2 nM | 6.50 | 293 nM | – | – | – | – | COC[C@H]1CCc2ccc(-c3ccc4cnc(CNC(=O)c5ccc6c(c5)S(=O)(=O)CCOC6)cc4n3)nc2N1C [Compound 477]
– | – | – | 1730 nM | – | 4770 nM | 2.75 | COCC1CN(c2ccc3cnc(CNC(=O)c4ccc5c(c4)S(=O)(=O)CCOC5)cc3n2)c2ccccc2O1 (stereo not drawn) [Compound 716]
– | – | – | 4.5 nM | 5.59 | 25.2 nM | – | C[C@@H]1CN(c2cccc(-c3ccc4cnc(CNC(=O)c5ccc6c(c5)S(=O)(=O)[C@@H](C)COC6)cc4n3)n2)C[C@H](C)O1 [Compound 155]
10.4 nM | 56.64 | 590 nM | – | – | – | – | O=C(NCc1cc2nc(N3CCCc4ccc(C5CC5)nc43)ccc2cn1)c1ccc2c(c1)S(=O)(=O)CCOC2 [Compound 536]
– | – | – | 90.3 nM | 16.45 | 1480 nM | – | O=C(NCc1cc2nc(-c3cccc(CC(F)F)n3)ccc2cn1)c1ccc2c(c1)S(=O)(=O)CCOC2 [Compound 205]
– | – | – | 9.5 nM | 13.94 | 132 nM | – | C[C@@H]1CN(c2cccc(-c3ccc4cnc(CNC(=O)c5ccc(Cl)c(S(C)(=O)=O)c5)cc4n3)n2)C[C@H](C)O1 [Compound 213]
42.7 nM | 14.74 | 630 nM | – | – | – | – | O=C(NCc1cc2nc(-c3cccc(OCC4CCC4)n3)ccc2cn1)c1ccc2c(c1)S(=O)(=O)CCOC2 [Compound 375]
9.5 nM | 13.13 | 125 nM | – | – | – | – | CO[C@@H]1CCN(c2cccc(-c3ccc4cnc(CNC(=O)c5ccc6c(c5)S(=O)(=O)CCOC6)cc4n3)n2)C[C@H]1C [Compound 353]
22.1 nM | 10.05 | 222 nM | – | – | – | – | COCc1cnc2c(c1)CCCN2c1ccc2cnc(CNC(=O)c3ccc4c(c3)S(=O)(=O)CCOC4)cc2n1 [Compound 447]
16.1 nM | 9.43 | 152 nM | – | – | – | – | C[C@@H]1CN(c2cccc(-c3ccc4cnc(CNC(=O)c5cc(Cl)c6c(c5)S(=O)(=O)[C@@H](C)COC6)cc4n3)n2)C[C@H](C)O1 [Compound 431]
230 nM | 7.47 | 1720 nM | – | – | – | – | COc1ccc2c(c1)CCN2c1ccc2cnc(CNC(=O)c3ccc4c(c3)S(=O)(=O)CCOC4)cc2n1 [Compound 653]
– | – | – | 40.7 nM | 15.00 | 610 nM | – | CS(=O)(=O)c1cc(C(=O)NCc2cc3nc(-c4cccc(N5CC[C@H]6COC[C@H]6C5)n4)ccc3cn2)ccc1C(F)F [Compound 95]
17.1 nM | 13.29 | 227 nM | – | – | – | – | CO[C@@H]1CN(c2cccc(-c3ccc4cnc(CNC(=O)c5ccc6c(c5)S(=O)(=O)CCOC6)cc4n3)n2)C[C@@H]1F [Compound 333]
20.3 nM | 19.65 | 399 nM | – | – | – | – | Cc1ccc2c(c1)OCCN2c1ccc2cnc(CNC(=O)c3ccc4c(c3)S(=O)(=O)CCCO4)cc2n1 [Compound 551]
– | – | – | 17.3 nM | 7.37 | 127 nM | – | CO[C@H]1C[C@H](N(C)c2cccc(-c3ccc4cnc(CNC(=O)c5ccc6c(c5)S(=O)(=O)CCOC6)cc4n3)n2)C1 [Compound 42]
– | – | – | 36.4 nM | 13.37 | 487 nM | – | O=C(NCc1cc2nc(-c3cccc(N4CCC4)c3)ccc2cn1)c1ccc2c(c1)S(=O)(=O)CCOC2 [Compound 255]
– | – | – | 8.8 nM | – | 716 nM | 81.47 | O=C(NCc1cc2nc(N3CCOc4ccc(C5CCC5)nc43)ccc2cn1)c1ccc2c(c1)S(=O)(=O)CCOC2 [Compound 722]

SMILES | IC50 (BRM; [1]) | Ratio* (BRM; ratio of BRG1 IC50 to BRM IC50) | IC50 (BRG-1; [1]) | IC50 (BRM; ADP-Glo ATPase assay) | Ratio* (BRG1 IC50 (μM) divided by BRM IC50 (μM)) (BRM) | IC50 (BRG-1; ADP-Glo ATPase assay) | Ratio* (BRM; ratio BRG1 IC50 / BRM IC50)
O=C(NCc1cc2nc(-c3cccc(N4CC5CC(C4)O5)n3)ccc2cn1)c1ccc2c(c1)S(=O)(=O)CCOC2 [Compound 276] | – | – | – | 81.8 nM | 7.14 | 584 nM | –
